The values that follow come from patent US20230135729A1, “COMPOUND WITH ANTI-SPORE ACTIVITY AND PHARMACEUTICAL COMPOSITION THEREOF” (priority 2020, published 2023).

Common to all, as to assay type: cell-based
Assay [1] concerns spores of ATCC 43255 strain. Nature of the assay: Inhibition of germination of C. difficile spores (MIC), strain ATCC 43255. To be noted: Clostridioides difficile, ATCC43255, 1 h; strain 43255; sodium taurocholate as germinant, BHIS medium, 37° C., OD580 for 60 min; read-out: MIC (minimum concentration that completely inhibits spore germination). Summed up: (§1)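 Spores heat-activated for 30 min at 65° C and washed, then preincubated with compound (10 mM DMSO stock) in BHIS at 37° C. Germination was triggered with sodium taurocholate, and OD580 was read each minute for 60 min. Inhibition = 100% − germination rate, from final vs initial OD relative to germinant-only controls.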

For assay [2], the system named is spores of ATCC 630 strain. Nature of the assay: Inhibition of germination of C. difficile spores (MIC), strain ATCC 630. To be noted: Clostridioides difficile, ATCC630, 1 h; strain 630; sodium taurocholate as germinant, BHIS medium, 37° C., OD580 for 60 min; read-out: MIC (minimum concentration that completely inhibits spore germination). The gist of the method: as §1

Assay [3] deals with spores of ATCC BBA1870 strain. Nature of the assay: Inhibition of germination of C. difficile spores (MIC), strain ATCC BBA1870. To be noted: Clostridioides difficile, ATCCBBA1870STRAIN, 1 h; strain 1870; sodium taurocholate as germinant, BHIS medium, 37° C., OD580 for 60 min; read-out: MIC (minimum concentration that completely inhibits spore germination). The gist of the method: as §1

Molecules are shown by their SMILES. ≈ marks a conversion by molar mass, not a printed value.

Consider `CC(C)C(NC(=O)C[C@@H](C)[C@H]1CC[C@H]2[C@@H]3[C@H](OS(=O)(=O)O)C[C@@H]4CC(=O)CC[C@]4(C)[C@H]3CC[C@]12C)c1ccc(Br)s1` (stereo partly drawn) [Compound I-113], for which the values for the MIC in assay [1], in assay [2] and in assay [3] were 0.5 µM (≈ 0.336 µg/mL), 1 µM (≈ 0.673 µg/mL) and 1 µM (≈ 0.673 µg/mL), respectively.
On to `CC(C)[C@H](NC(=O)C[C@@H](C)[C@H]1CC[C@H]2[C@@H]3[C@H](OS(=O)(=O)O)C[C@@H]4CC(=O)CC[C@]4(C)[C@H]3CC[C@]12C)c1ccc(Br)s1` [Compound I-114], for which the MIC in assay [1], in assay [2] and in assay [3] was greater than 256 µM throughout.
As for `CC(C)[C@@H](NC(=O)C[C@@H](C)[C@H]1CC[C@H]2[C@@H]3[C@H](OS(=O)(=O)O)C[C@@H]4CC(=O)CC[C@]4(C)[C@H]3CC[C@]12C)c1ccc(Br)s1` [Compound I-115], the values for the MIC in assay [1], in assay [2] and in assay [3] were 0.25 µM (≈ 0.168 µg/mL), 0.5 µM (≈ 0.336 µg/mL) and 0.5 µM (≈ 0.336 µg/mL), respectively.
For the compound `CCC(NC(=O)C[C@@H](C)[C@H]1CC[C@H]2[C@@H]3[C@H](O)[C@H](O)[C@@H]4C[C@H](O)CC[C@]4(C)[C@H]3CC[C@]12C)c1cccs1` (stereo partly drawn) [Compound I-116], the MIC in assay [1], in assay [2] and in assay [3] was 16 µM (≈ 8.28 µg/mL) throughout.
Take `CC[C@@H](NC(=O)C[C@@H](C)[C@H]1CC[C@H]2[C@@H]3[C@H](O)[C@H](O)[C@@H]4C[C@H](O)CC[C@]4(C)[C@H]3CC[C@]12C)c1ccc(Cl)s1` [Compound I-117]: the MIC in assay [1] was 8 µM (≈ 4.42 µg/mL); in assay [2], 4 µM (≈ 2.21 µg/mL); in assay [3], 8 µM (≈ 4.42 µg/mL).
Turning to `CCC(NC(=O)C[C@@H](C)[C@H]1CC[C@H]2[C@@H]3[C@H](O)[C@H](O)[C@@H]4C[C@H](O)CC[C@]4(C)[C@H]3CC[C@]12C)c1ccc(Br)s1` (stereo partly drawn) [Compound I-118], the MIC in assay [1] came to 8 µM (≈ 4.77 µg/mL); in assay [2], 8 µM (≈ 4.77 µg/mL); in assay [3] it was 16 µM (≈ 9.55 µg/mL).
Consider `CC(C)C(NC(=O)C[C@@H](C)[C@H]1CC[C@H]2[C@@H]3[C@H](O)[C@H](O)[C@@H]4C[C@H](O)CC[C@]4(C)[C@H]3CC[C@]12C)c1cccs1` (stereo partly drawn) [Compound I-119], for which the MIC in assay [1], in assay [2] and in assay [3] was 32 µM (≈ 17 µg/mL) throughout.
`CC(C)[C@@H](NC(=O)C[C@@H](C)[C@H]1CC[C@H]2[C@@H]3[C@H](O)[C@H](O)[C@@H]4C[C@H](O)CC[C@]4(C)[C@H]3CC[C@]12C)c1ccc(Cl)s1` [Compound I-120]: the MIC in assay [1], in assay [2] and in assay [3] was 16 µM (≈ 9.06 µg/mL) each time.
In the case of `CC(C)[C@H](NC(=O)C[C@@H](C)[C@H]1CC[C@H]2[C@@H]3[C@H](O)[C@H](O)[C@@H]4C[C@H](O)CC[C@]4(C)[C@H]3CC[C@]12C)c1ccc(Br)s1` [Compound I-121], the MIC in assay [1], in assay [2] and in assay [3] was greater than 256 µM each time.
Take `CC[C@@H](NC(=O)C[C@@H](C)[C@H]1CC[C@H]2[C@@H]3[C@H](O)[C@H](O)[C@@H]4CC(=O)CC[C@]4(C)[C@H]3CC[C@]12C)c1cccs1` [Compound I-122]: the MIC in assay [1], in assay [2] and in assay [3] was 128 µM (≈ 66 µg/mL) throughout.
Consider `CC[C@@H](NC(=O)C[C@@H](C)[C@H]1CC[C@H]2[C@@H]3[C@H](O)[C@H](O)[C@@H]4CC(=O)CC[C@]4(C)[C@H]3CC[C@]12C)c1ccc(Cl)s1` [Compound I-123], for which the MIC in assay [1], in assay [2] and in assay [3] was 64 µM (≈ 35.2 µg/mL) throughout.
As to `CC[C@@H](NC(=O)C[C@@H](C)[C@H]1CC[C@H]2[C@@H]3[C@H](O)[C@H](O)[C@@H]4CC(=O)CC[C@]4(C)[C@H]3CC[C@]12C)c1ccc(Br)s1` [Compound I-124], the MIC in assay [1], in assay [2] and in assay [3] was 64 µM (≈ 38.1 µg/mL) in each case.
Turning to `CCC(NC(=O)C[C@@H](C)[C@H]1CC[C@H]2[C@@H]3C[C@H](O)[C@@H]4C[C@H](O)CC[C@]4(C)[C@H]3CC[C@]12C)c1cccs1` (stereo partly drawn) [Compound I-125], the MIC in assay [1], in assay [2] and in assay [3] was 2 µM (≈ 1 µg/mL) in each case.
For the compound `CCC(NC(=O)C[C@@H](C)[C@H]1CC[C@H]2[C@@H]3C[C@H](O)[C@@H]4C[C@H](O)CC[C@]4(C)[C@H]3CC[C@]12C)c1ccc(Cl)s1` (stereo partly drawn) [Compound I-126], the MIC in assay [1] was found to be 2 µM (≈ 1.07 µg/mL); in assay [2] it was 1 µM (≈ 0.536 µg/mL); in assay [3] it was 2 µM (≈ 1.07 µg/mL).
For `CC(C)C(NC(=O)C[C@@H](C)[C@H]1CC[C@H]2[C@@H]3C[C@H](O)[C@@H]4C[C@H](O)CC[C@]4(C)[C@H]3CC[C@]12C)c1cccs1` (stereo partly drawn) [Compound I-127], the MIC in assay [1] is 8 µM (≈ 4.13 µg/mL); in assay [2] it was 4 µM (≈ 2.06 µg/mL); in assay [3] it was 8 µM (≈ 4.13 µg/mL).
For `CC(C)[C@@H](NC(=O)C[C@@H](C)[C@H]1CC[C@H]2[C@@H]3C[C@H](O)[C@@H]4C[C@H](O)CC[C@]4(C)[C@H]3CC[C@]12C)c1ccc(Br)s1` [Compound I-128], the figures for the MIC in assay [1], in assay [2] and in assay [3] were 2 µM (≈ 1.19 µg/mL), 1 µM (≈ 0.595 µg/mL) and 2 µM (≈ 1.19 µg/mL), respectively.
Consider `CC[C@H](NC(=O)C[C@@H](C)[C@H]1CC[C@H]2[C@@H]3C[C@H](O)[C@@H]4CC(=O)CC[C@]4(C)[C@H]3CC[C@]12C)c1ccc(Cl)s1` [Compound I-129], for which the MIC came to 2 µM (≈ 1.07 µg/mL) in assay [1], 2 µM (≈ 1.07 µg/mL) in assay [2] and 4 µM (≈ 2.14 µg/mL) in assay [3].
As for `CC(C)C(NC(=O)C[C@@H](C)[C@H]1CC[C@H]2[C@@H]3C[C@H](O)[C@@H]4CC(=O)CC[C@]4(C)[C@H]3CC[C@]12C)c1ccc(Br)s1` (stereo partly drawn) [Compound I-130], the MIC in assay [1], in assay [2] and in assay [3] was 4 µM (≈ 2.37 µg/mL) in each case.
In the case of `CC(C)[C@@H](NC(=O)C[C@@H](C)[C@H]1CC[C@H]2[C@@H]3CC(=O)[C@@H]4CC(=O)CC[C@]4(C)[C@H]3CC[C@]12C)c1ccc(Cl)s1` [Compound I-131], the MIC in assay [1], in assay [2] and in assay [3] was 2 µM (≈ 1.09 µg/mL) in each case.
In the case of `CC[C@H](NC(=O)C[C@@H](C)[C@H]1CC[C@H]2[C@@H]3[C@H](O)C[C@@H]4CC(=O)CC[C@]4(C)[C@H]3CC[C@]12C)c1cccs1` [Compound I-132], the figures for the MIC in assay [1], in assay [2] and in assay [3] were 128 µM (≈ 64 µg/mL), 256 µM (≈ 128 µg/mL) and greater than 256 µM, respectively.
The like results for `CC[C@@H](NC(=O)C[C@@H](C)[C@H]1CC[C@H]2[C@@H]3[C@H](O)C[C@@H]4CC(=O)CC[C@]4(C)[C@H]3CC[C@]12C)c1cccs1` [Compound I-133] were, in that order, 2 µM (≈ 1 µg/mL), 2 µM (≈ 1 µg/mL) and 2 µM (≈ 1 µg/mL).
On the same counts, the results for `CC(C)C(NC(=O)C[C@@H](C)[C@H]1CC[C@H]2[C@@H]3[C@H](O)C[C@@H]4CC(=O)CC[C@]4(C)[C@H]3CC[C@]12C)c1cccs1` (stereo partly drawn) [Compound I-134] are 2 µM (≈ 1.03 µg/mL), 2 µM (≈ 1.03 µg/mL) and 2 µM (≈ 1.03 µg/mL).
